Reference: PubChem BioAssay AID2060619 (Molecular Pharmacology Branch, DTP, NCI, 2025)

Test system: 323965-272-R-J2-PDC complex spheroid viability
Assay: Anticancer human tumor 323965-272-R-J2-PDC patient-derived pancreatic carcinoma cell line growth inhibition [CLK]
Conditions: for IC50: curve of first compound; for viability, T/C: stronger effect = lower value
Summary of the method: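 Patient-derived tumor cells grown as complex spheroids with HUVEC endothelial cells and mesenchymal stem cells, treated with drug combinations. Concentrations descend in half-log steps from near clinical Cmax, or from 10 microM if Cmax unknown.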

[1] = second compound 0.0316 µM, first compound 0.00949 µM
[2] = second compound 0.0316 µM, first compound 0.03 µM
[3] = second compound 0.0316 µM, first compound 0.0949 µM
[4] = second compound 0.0316 µM, first compound 0.3 µM
[5] = second compound 0.1 µM, first compound 0.00949 µM
[6] = second compound 0.1 µM, first compound 0.03 µM
[7] = second compound 0.1 µM, first compound 0.0949 µM
[8] = second compound 0.1 µM, first compound 0.3 µM
[9] = second compound 0.316 µM, first compound 0.00949 µM
[10] = second compound 0.316 µM, first compound 0.03 µM
[11] = second compound 0.316 µM, first compound 0.0949 µM
[12] = second compound 0.316 µM, first compound 0.3 µM
[13] = second compound 1 µM, first compound 0.00949 µM
[14] = second compound 1 µM, first compound 0.03 µM
[15] = second compound 1 µM, first compound 0.0949 µM
[16] = second compound 1 µM, first compound 0.3 µM
[17] = second compound 3.16 µM, first compound 0.00949 µM
[18] = second compound 3.16 µM, first compound 0.03 µM
[19] = second compound 3.16 µM, first compound 0.0949 µM
[20] = second compound 3.16 µM, first compound 0.3 µM
[21] = second compound 10 µM, first compound 0.00949 µM
[22] = second compound 10 µM, first compound 0.03 µM
[23] = second compound 10 µM, first compound 0.0949 µM
[24] = second compound 10 µM, first compound 0.3 µM
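Note: spheroids exposed to agents for seven days before readout.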
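Throughout, for viability, T/C: percent of DMSO vehicle control wells so 100% = untreated growth.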

C=CC(=O)Nc1cc(Nc2nccc(-c3cn(C)c4ccccc34)n2)c(OC)cc1N(C)CCN(C)C + CN1CCN(c2cc(C(=O)Nc3cc4cc(-c5cnn(C)c5)ccc4cn3)ccn2)CC1
IC50 (second compound 0.0316 µM): > 300 nM | IC50 (second compound 0.1 µM): > 300 nM | IC50 (second compound 0.316 µM): < 0.949 nM | IC50 (second compound 1 µM): < 0.949 nM | IC50 (second compound 3.16 µM): < 0.949 nM | IC50 (second compound 10 µM): < 0.949 nM | viability, T/C (second compound 0.0316 µM, first compound 0.000949 µM): 92.1% | viability, T/C (second compound 0.0316 µM, first compound 0.003 µM): 86.8% | viability, T/C [1]: 89.3% | viability, T/C [2]: 89.6% | viability, T/C [3]: 82% | viability, T/C [4]: 75.8% | viability, T/C (second compound 0.1 µM, first compound 0.000949 µM): 73.2% | viability, T/C (second compound 0.1 µM, first compound 0.003 µM): 76.4% | viability, T/C [5]: 59.1% | viability, T/C [6]: 61.8% | viability, T/C [7]: 52.2% | viability, T/C [8]: 51.4% | viability, T/C (second compound 0.316 µM, first compound 0.000949 µM): 21.9% | viability, T/C (second compound 0.316 µM, first compound 0.003 µM): 26.8% | viability, T/C [9]: 21.4% | viability, T/C [10]: 19.1% | viability, T/C [11]: 17.7% | viability, T/C [12]: 17.3% | viability, T/C (second compound 1 µM, first compound 0.000949 µM): 3.35% | viability, T/C (second compound 1 µM, first compound 0.003 µM): 2.76% | viability, T/C [13]: 7.03% | viability, T/C [14]: 2.91% | viability, T/C [15]: 2.48% | viability, T/C [16]: 2.38% | viability, T/C (second compound 3.16 µM, first compound 0.000949 µM): 3.68% | viability, T/C (second compound 3.16 µM, first compound 0.003 µM): 3.94% | viability, T/C [17]: 5.04% | viability, T/C [18]: 2.7% | viability, T/C [19]: 2.6% | viability, T/C [20]: 3.13% | viability, T/C (second compound 10 µM, first compound 0.000949 µM): 4.03% | viability, T/C (second compound 10 µM, first compound 0.003 µM): 4.64% | viability, T/C [21]: 4.92% | viability, T/C [22]: 3.05% | viability, T/C [23]: 2.71% | viability, T/C [24]: 3.08%

NC(=O)C(=Cn1cnc(-c2cc(C(F)(F)F)cc(C(F)(F)F)c2)n1)c1cncnc1 + CN1CCN(c2cc(C(=O)Nc3cc4cc(-c5cnn(C)c5)ccc4cn3)ccn2)CC1
IC50 (second compound 0.0316 µM): 907 nM | IC50 (second compound 0.1 µM): 365 nM | IC50 (second compound 0.316 µM): < 9.49 nM | IC50 (second compound 1 µM): < 9.49 nM | IC50 (second compound 3.16 µM): < 9.49 nM | IC50 (second compound 10 µM): < 9.49 nM | viability, T/C [1]: 99.5% | viability, T/C [2]: 100% | viability, T/C [3]: 71.5% | viability, T/C [4]: 58.4% | viability, T/C (second compound 0.0316 µM, first compound 0.949 µM): 59.3% | viability, T/C (second compound 0.0316 µM, first compound 3 µM): 30% | viability, T/C [5]: 67.1% | viability, T/C [6]: 64.7% | viability, T/C [7]: 60.4% | viability, T/C [8]: 52.1% | viability, T/C (second compound 0.1 µM, first compound 0.949 µM): 38.6% | viability, T/C (second compound 0.1 µM, first compound 3 µM): 17% | viability, T/C [9]: 23.6% | viability, T/C [10]: 24% | viability, T/C [11]: 20.3% | viability, T/C [12]: 12.3% | viability, T/C (second compound 0.316 µM, first compound 0.949 µM): 5.84% | viability, T/C (second compound 0.316 µM, first compound 3 µM): 1.04% | viability, T/C [13]: 2.31% | viability, T/C [14]: 2.24% | viability, T/C [15]: 4.13% | viability, T/C [16]: 2.36% | viability, T/C (second compound 1 µM, first compound 0.949 µM): 1.39% | viability, T/C (second compound 1 µM, first compound 3 µM): 0.76% | viability, T/C [17]: 2.18% | viability, T/C [18]: 4.18% | viability, T/C [19]: 3.49% | viability, T/C [20]: 1.2% | viability, T/C (second compound 3.16 µM, first compound 0.949 µM): 0.81% | viability, T/C (second compound 3.16 µM, first compound 3 µM): 1.01% | viability, T/C [21]: 2.14% | viability, T/C [22]: 1.92% | viability, T/C [23]: 1.56% | viability, T/C [24]: 1.44% | viability, T/C (second compound 10 µM, first compound 0.949 µM): 2% | viability, T/C (second compound 10 µM, first compound 3 µM): 0.3%

Nc1ccccc1NC(=O)c1ccc(CNC(=O)OCc2cccnc2)cc1 + CN1CCN(c2cc(C(=O)Nc3cc4cc(-c5cnn(C)c5)ccc4cn3)ccn2)CC1
IC50 (second compound 0.0316 µM): 6960 nM | IC50 (second compound 0.1 µM): 3000 nM | IC50 (second compound 0.316 µM): < 31.6 nM | IC50 (second compound 1 µM): < 31.6 nM | IC50 (second compound 3.16 µM): < 31.6 nM | IC50 (second compound 10 µM): < 31.6 nM | viability, T/C (second compound 0.0316 µM, first compound 0.0316 µM): 92.1% | viability, T/C (second compound 0.0316 µM, first compound 0.1 µM): 92.3% | viability, T/C (second compound 0.0316 µM, first compound 0.316 µM): 93.6% | viability, T/C (second compound 0.0316 µM, first compound 1 µM): 99% | viability, T/C (second compound 0.0316 µM, first compound 3.16 µM): 63.5% | viability, T/C (second compound 0.0316 µM, first compound 10 µM): 43.8% | viability, T/C (second compound 0.1 µM, first compound 0.0316 µM): 79% | viability, T/C (second compound 0.1 µM, first compound 0.1 µM): 75.9% | viability, T/C (second compound 0.1 µM, first compound 0.316 µM): 80% | viability, T/C (second compound 0.1 µM, first compound 1 µM): 78.7% | viability, T/C (second compound 0.1 µM, first compound 3.16 µM): 48.6% | viability, T/C (second compound 0.1 µM, first compound 10 µM): 30.6% | viability, T/C (second compound 0.316 µM, first compound 0.0316 µM): 26.4% | viability, T/C (second compound 0.316 µM, first compound 0.1 µM): 24.6% | viability, T/C (second compound 0.316 µM, first compound 0.316 µM): 21.4% | viability, T/C (second compound 0.316 µM, first compound 1 µM): 21.8% | viability, T/C (second compound 0.316 µM, first compound 3.16 µM): 17.1% | viability, T/C (second compound 0.316 µM, first compound 10 µM): 16.8% | viability, T/C (second compound 1 µM, first compound 0.0316 µM): 3.43% | viability, T/C (second compound 1 µM, first compound 0.1 µM): 3.41% | viability, T/C (second compound 1 µM, first compound 0.316 µM): 4.13% | viability, T/C (second compound 1 µM, first compound 1 µM): 2.18% | viability, T/C (second compound 1 µM, first compound 3.16 µM): 2.06% | viability, T/C (second compound 1 µM, first compound 10 µM): 0.81% | viability, T/C (second compound 3.16 µM, first compound 0.0316 µM): 3.66% | viability, T/C (second compound 3.16 µM, first compound 0.1 µM): 5.59% | viability, T/C (second compound 3.16 µM, first compound 0.316 µM): 6.21% | viability, T/C (second compound 3.16 µM, first compound 1 µM): 4.43% | viability, T/C (second compound 3.16 µM, first compound 3.16 µM): 2.9% | viability, T/C (second compound 3.16 µM, first compound 10 µM): 3.42% | viability, T/C (second compound 10 µM, first compound 0.0316 µM): 3.69% | viability, T/C (second compound 10 µM, first compound 0.1 µM): 4.56% | viability, T/C (second compound 10 µM, first compound 0.316 µM): 5.4% | viability, T/C (second compound 10 µM, first compound 1 µM): 4.41% | viability, T/C (second compound 10 µM, first compound 3.16 µM): 4.37% | viability, T/C (second compound 10 µM, first compound 10 µM): 2.69%
